ChEMBL document CHEMBL1201862, “PubChem BioAssay data set” (2004)
The source made the active and inactive calls. Rule as the data show it: actives have a measured IC50 and inactives only a lower limit.

Molecular target: Envelope glycoprotein gp160 (Human immunodeficiency virus 1, UniProt Q6QLK5)
Test: inhibitors of HIV fusion peptide binding, primary screen, biochemical, uHTS, fluorescence dequenching (AID 1986)

Envelope glycoprotein gp160, sequence (Q6QLK5 whole entry, the tested form may be a part): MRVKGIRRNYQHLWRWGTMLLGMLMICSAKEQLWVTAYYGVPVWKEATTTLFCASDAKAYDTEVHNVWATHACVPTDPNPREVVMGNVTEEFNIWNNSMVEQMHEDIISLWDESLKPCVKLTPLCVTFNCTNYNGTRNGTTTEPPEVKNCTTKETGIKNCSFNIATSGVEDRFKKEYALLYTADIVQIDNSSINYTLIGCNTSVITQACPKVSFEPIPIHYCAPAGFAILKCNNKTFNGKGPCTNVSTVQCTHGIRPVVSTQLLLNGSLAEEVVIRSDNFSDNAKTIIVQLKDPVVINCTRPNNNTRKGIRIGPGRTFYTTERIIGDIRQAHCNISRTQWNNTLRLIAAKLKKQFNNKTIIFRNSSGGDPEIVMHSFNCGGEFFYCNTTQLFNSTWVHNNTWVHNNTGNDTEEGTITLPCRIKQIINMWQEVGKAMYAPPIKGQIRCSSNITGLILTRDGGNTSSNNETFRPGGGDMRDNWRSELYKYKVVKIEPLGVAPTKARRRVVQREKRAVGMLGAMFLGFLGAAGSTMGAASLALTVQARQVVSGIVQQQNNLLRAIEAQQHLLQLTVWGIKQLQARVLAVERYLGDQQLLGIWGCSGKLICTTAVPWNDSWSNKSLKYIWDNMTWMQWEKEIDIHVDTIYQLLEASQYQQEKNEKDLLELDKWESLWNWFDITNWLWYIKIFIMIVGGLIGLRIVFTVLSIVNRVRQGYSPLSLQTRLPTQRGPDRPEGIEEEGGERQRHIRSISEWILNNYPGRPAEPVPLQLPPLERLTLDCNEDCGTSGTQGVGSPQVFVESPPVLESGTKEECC

Question: With COc1ccc(S(=O)(=O)Nc2ccccc2C(=O)Nc2nc(-c3ccc(F)cc3)cs2)cc1OC as the compound, how does the IC50 read?
Answer: 14.8 µM (active)
